# From paper PMC11555678, “Improved Broad Spectrum Antifungal Drug Synergies with Cryptomycin, a Cdc50-Inspired Antifungal Peptide” (ACS Infectious Diseases, 2024)
# Like-named read-outs stand apart in the source and are kept apart here. Square brackets hold non-standard residues; d marks the D form. Peptide text beside a SMILES is read from it. * marks the point of attachment. Myristoyl = CCCCCCCCCCCCCC(=O)*; Orn = NCCC[C@H](N)C(=O)O
# Key:
# [1] = tested on: C. auris B11245; experiment: microbe, parasite or virus in culture; format: cell-based, Candida auris
# Protocol: (§1) All microdilution assays with fungi were carried out in accordance with CLSI protocols from M27 for yeasts and M38 for filamentous fungi, respectively, unless otherwise specified.[64],[65] Briefly, 96-well plates were charged with RPMI1640 media, with operating volume in the first column, 200 μL, and half operating volume, 100 μL, in the remaining wells. Drug stock solution in DMSO was aliquoted into the first well in each row. Half of the volume in the dosed well was serially diluted 2-fold until column 11. Column 11 was used as the negative growth control, and column 12 was used as the positive growth control. ON yeast cultures in YPD were washed twice in DD-H2O, resuspended in PBS, and adjusted to 5000 cfu/mL in RPMI. The 96-well plate was inoculated with 100 μL aliquots of cell suspension per well. Plates were incubated at 37 °C for 2 days.
# [2] = tested on: C. glabrata 2001; format: cell-based, Candida glabrata; settings: RPMI1640, 37 °C, 48 h
# Protocol: as §1
# (§2) To assess drug synergy, the initial media charged to the plate contained the peptide at twice the final operating concentration; the remaining processing steps were identical to the MIC experiment. Upon addition of 100 μL of inoculant, the final operating concentration was achieved. Control MIC plates were prepared alongside drug synergy plates to account for the day-to-day variability in any individual MIC. FIC index is computed using eq 1. All MIC assays and drug synergy assays were completed with two technical replicates per 96-well plate and a minimum of two biological replicates per drug combination. If a difference in MIC between the two technical replicates on the plate were observed, only the higher concentration was reported as the MIC to reduce the possibility of type 1 error (false positive) [drawing 1] 1
# [3] = tested on: Cn MRL862; format: cell-based, Cryptococcus neoformans; settings: RPMI1640, 37 °C, 48 h
# Protocol: as §1, §2
# [4] = tested on: Cg FKS1 S629P; experiment: Drug synergy (MIC in peptide-supplemented media); format: cell-based, Candida glabrata; settings: RPMI1640, 37 °C, 48 h
# Protocol: as §1, §2
# [5] = tested on: Cg FKS2 S663P; experiment: Drug synergy (MIC in peptide-supplemented media); format: cell-based, Candida glabrata; settings: RPMI1640, 37 °C, 48 h
# Protocol: as §1, §2
# [6] = tested on: Cn apt1Δ; experiment: microbe, parasite or virus in culture; format: cell-based, Cryptococcus neoformans; settings: for MIC: 37 °C, 48 h
# Protocol: (§3) Previous studies have shown that modifying microbiological media with salts such as CaCl2 can have a drastic effect on the growth of fungi and their responses to antifungals.[19],[35] In the case of CaCl2, the divalent cation, Ca^2+, is involved in fungal cell stress response. To understand how the peptide activity may involve calcium and stress response, the MICs of KKOO, KKOO-NH2, FLC, and CAS were assessed as a function of the calcium concentration in liquid YPD media. It was observed that calcium enrichment completely desensitized the wild-type strain to KKOO and KKOO-NH2, Tables 7 and 8, respectively. Effects of calcium enrichment on the susceptibility of Cryptococcus to CAS similar to literature values were recorded, Supporting Information, Table S7.[35]
# as §1
# [7] = tested on: Cn crm1Δ; experiment: microbe, parasite or virus in culture; format: cell-based, Cryptococcus neoformans; settings: YPD + 0 mM Ca2+, 37 °C, 48 h
# Protocol: as §3, §1
# [8] = tested on: Cn Crm1-oe; experiment: microbe, parasite or virus in culture; format: cell-based, Cryptococcus neoformans; settings: YPD + 0 mM Ca2+, 37 °C, 48 h
# Protocol: as §3, §1
# [9] = tested on: Cn H99; experiment: microbe, parasite or virus in culture; format: cell-based, Cryptococcus neoformans; settings: for MIC: 37 °C, 48 h
# Protocol: as §3
# (§4) In order to control for the effects of enriching YPD with a divalent cation, MICs and ROS production were also measured as a function of the MgCl2 supplement at the same millimolar concentrations of cation as in the CaCl2-modified experiments. […] No peptide susceptibility changes were observed against Cn cdc50Δ in magnesium-enriched media, Table S9. ROS production in H99 induced by peptide exposure was inhibited after 30 min of treatment in the magnesium-enriched condition, similar to the levels observed in the calcium-enriched media at 16 μg/mL KKOO-NH2, Figure S1. […] The link between peptide activity and calcium homeostasis may be vital in understanding precisely how the peptide kills fungal cells and requires more research to elucidate.
# as §1
# [10] = tested on: Cn cdc50Δ; experiment: microbe, parasite or virus in culture; format: cell-based, Cryptococcus neoformans; settings: for MIC: 37 °C, 48 h
# Protocol: as §3, §4, §1
compound,measurement,setting,value
"CCC(C)n1ncn(-c2ccc(N3CCN(c4ccc(OCC5COC(Cn6cncn6)(c6ccc(Cl)cc6Cl)O5)cc4)CC3)cc2)c1=O (centres unmarked) [ITR, itraconazole]",MIC,"[1]; Candidozyma auris, B11245, compound alone, RPMI1640, 37 °C, 48 h, * = paradoxical growth observed (CAS), read-out: MIC",0.5 µg/mL
same,MIC of antifungal in combination with KKOO,[2]; +0 μg/mL KKOO (control),0.5 µg/mL
same,MIC of antifungal in combination with KKOO-NH2,[2]; +0 μg/mL KKOO-NH2 (control),0.5 µg/mL
same,MIC of antifungal in combination with KKOO-NH2,[2]; +1 μg/mL KKOO-NH2,0.25 µg/mL
same,MIC of antifungal in combination with KKOO,[2]; +1 μg/mL KKOO,0.25 µg/mL
same,MIC of antifungal in combination with KKOO-NH2,[2]; +2 μg/mL KKOO-NH2,0.125 µg/mL
same,MIC of antifungal in combination with KKOO,[2]; +2 μg/mL KKOO,0.125 µg/mL
same,MIC of antifungal in combination with KKOO-NH2,[2]; +4 μg/mL KKOO-NH2,0.031 µg/mL
same,MIC of antifungal in combination with KKOO,[2]; +4 μg/mL KKOO,0.062 µg/mL
same,MIC of antifungal in combination with KKOO,[2]; +8 μg/mL KKOO,0.062 µg/mL
same,MIC of antifungal in combination with KKOO,[3]; +0 μg/mL KKOO (control),0.062 µg/mL
same,MIC of antifungal in combination with KKOO-NH2,[3]; +0 μg/mL KKOO-NH2 (control),0.062 µg/mL
same,MIC of antifungal in combination with KKOO-NH2,[3]; +1 μg/mL KKOO-NH2,0.062 µg/mL
same,MIC of antifungal in combination with KKOO,[3]; +1 μg/mL KKOO,0.031 µg/mL
same,MIC of antifungal in combination with KKOO-NH2,[3]; +2 μg/mL KKOO-NH2,0.016 µg/mL
same,MIC of antifungal in combination with KKOO,[3]; +2 μg/mL KKOO,0.016 µg/mL
same,MIC of antifungal in combination with KKOO-NH2,[3]; +4 μg/mL KKOO-NH2,0.004 µg/mL
same,MIC of antifungal in combination with KKOO,[3]; +4 μg/mL KKOO,0.556 µg/mL
same,MIC of antifungal in combination with KKOO,[4]; +0 μg/mL KKOO (control),0.125 µg/mL
same,MIC of antifungal in combination with KKOO-NH2,[4]; +0 μg/mL KKOO-NH2 (control),0.062 µg/mL
same,MIC of antifungal in combination with KKOO-NH2,[4]; +1 μg/mL KKOO-NH2,0.031 µg/mL
same,MIC of antifungal in combination with KKOO,[4]; +1 μg/mL KKOO,0.062 µg/mL
same,MIC of antifungal in combination with KKOO-NH2,[4]; +2 μg/mL KKOO-NH2,0.016 µg/mL
same,MIC of antifungal in combination with KKOO,[4]; +2 μg/mL KKOO,0.031 µg/mL
same,MIC of antifungal in combination with KKOO-NH2,[4]; +4 μg/mL KKOO-NH2,0.008 µg/mL
same,MIC of antifungal in combination with KKOO,[4]; +4 μg/mL KKOO,0.016 µg/mL
same,MIC of antifungal in combination with KKOO,[5]; +0 μg/mL KKOO (control),0.031 µg/mL
same,MIC of antifungal in combination with KKOO-NH2,[5]; +0 μg/mL KKOO-NH2 (control),0.031 µg/mL
same,MIC of antifungal in combination with KKOO-NH2,[5]; +1 μg/mL KKOO-NH2,0.016 µg/mL
same,MIC of antifungal in combination with KKOO,[5]; +1 μg/mL KKOO,0.016 µg/mL
same,MIC of antifungal in combination with KKOO-NH2,[5]; +2 μg/mL KKOO-NH2,0.004 µg/mL
same,MIC of antifungal in combination with KKOO,[5]; +2 μg/mL KKOO,0.016 µg/mL
same,MIC of antifungal in combination with KKOO-NH2,[5]; +4 μg/mL KKOO-NH2,0.002 µg/mL
same,MIC of antifungal in combination with KKOO,[5]; +4 μg/mL KKOO,0.556 µg/mL
CCCCCCCCCCCCCC(=O)N[C@@H](Cc1c[nH]c2ccccc12)C(=O)NCC(=O)NCC(=O)N[C@H](C(=O)N[C@@H](CCCN)C(=O)N[C@@H](CCCN)C(=O)N[C@@H](CC(N)=O)C(=O)N[C@@H](Cc1ccc(O)cc1)C(=O)N[C@@H](C)C(N)=O)[C@@H](C)CC [KKOO-NH2] (Myristoyl-WGGI[Orn][Orn]NYA-NH2),MIC,"[1]; B11245, 48 h",16 µg/mL
same,MIC,[6]; YPD + 0 mM Ca2+,4 µg/mL
same,increase of MIC,[6]; YPD +0 to +20 mM CaCl2,32 fold
same,MIC,[6]; YPD + 2.5 mM Ca2+,16 µg/mL
same,MIC,[6]; YPD + 5 mM Ca2+,64 µg/mL
same,MIC,[6]; YPD + 10 mM Ca2+,64 µg/mL
same,MIC,[7],4 µg/mL
same,MIC,[8],4 µg/mL
same,MIC,[9]; YPD + 0 mM Ca2+,8 µg/mL
same,MIC,[9]; YPD + 0 mM Mg2+,8 µg/mL
same,increase of MIC,[9]; YPD +0 to +2.5 mM CaCl2,16 fold
same,increase of MIC,[9]; YPD +0 to +20 mM MgCl2,4 fold
same,MIC,[9]; YPD + 2.5 mM Ca2+,128 µg/mL
same,MIC,[9]; YPD + 2.5 mM Mg2+,8 µg/mL
same,MIC,[9]; YPD + 5 mM Ca2+,>128 µg/mL
same,MIC,[9]; YPD + 5 mM Mg2+,16 µg/mL
same,MIC,[9]; YPD + 10 mM Ca2+,>128 µg/mL
same,MIC,[9]; YPD + 10 mM Mg2+,16 µg/mL
same,MIC,[9]; YPD + 20 mM Ca2+,>128 µg/mL
same,MIC,[9]; YPD + 20 mM Mg2+,32 µg/mL
same,MIC,[10]; YPD + 0 mM Ca2+,2 µg/mL
same,MIC,"[10]; YPD + 0 mM Mg2+, unit inferred",4 µg/mL
same,increase of MIC (largest deviation),[10]; YPD +0 to +5 mM CaCl2,4 fold
same,MIC,[10]; YPD + 2.5 mM Ca2+,4 µg/mL
same,MIC,"[10]; YPD + 2.5 mM Mg2+, unit inferred",4 µg/mL
same,MIC,[10]; YPD + 5 mM Ca2+,8 µg/mL
same,MIC,"[10]; YPD + 5 mM Mg2+, unit inferred",4 µg/mL
same,MIC,[10]; YPD + 10 mM Ca2+,8 µg/mL
same,MIC,"[10]; YPD + 10 mM Mg2+, unit inferred",4 µg/mL
same,MIC,[10]; YPD + 20 mM Ca2+,4 µg/mL
same,MIC,"[10]; YPD + 20 mM Mg2+, unit inferred",4 µg/mL
